From ChEMBL document CHEMBL1201862, “PubChem BioAssay data set” (2004) come the findings set out here.

Each structure is given as a SMILES string. Active and inactive are the calls of the source. How the calls were made is not given here.

The nature of this test: HEp-2 cell cytotoxicity, dose response, cytotoxicity control for RSV inhibitor project, HTS (AID 2410). Type of test: functional. As to conditions: human respiratory syncytial virus.

One may read the CC50 as the concentration giving 50% cytotoxicity.

Turning to `Cc1cc(Nc2ccccc2C(=O)O)n(-c2cccc(Cl)c2)n1`, the 50% cytotoxic concentration (CC50) was 30.9 µM (active).
